In patent US8007991B2, “Three-dimensional physiological matrices for oncological testing, and methods for their production and use” (priority 2006, dated 2011):

System: Patient Sample GS-640, kidney tissue (renal cell carcinoma)
Test: Tumor fragment growth and invasion (cell migration) in three-dimensional gel matrix, 48-well plate chemotherapy screening
Assay type: cell-based, human
Conditions: 5 days treatment; for number of cells that have grown and invaded away from the solid tumor fragment / distance of cell migration away from the solid tumor fragment: 37 degrees Celsius; for number of cells that have grown and invaded away from the solid tumor fragment: 5% CO2, photomicrograph compared with untreated control (FIG. 5); for response to the drug (overall): renal cell carcinoma patient sample; for distance of cell migration away from the solid tumor fragment: 5% CO2, photomicrograph
Source text: FIGS. 1-8 are photographic and photomicrographic images which show, by way of example, use of the means and methods of the present invention with respect to a tissue sample removed from a patient. With respect to FIGS. 1-8, Patient Sample GS-640, comprising kidney tissue, was removed from the patient by a surgeon during surgery.
Tissue analysis and screening in accordance with the invention were requested by the surgeon, and proper consent was obtained from the patient prior to surgical removal of a sample quantity of tissue from the RHS Kidney. The patient was diagnosed with renal cell carcinoma. A tissue sample of approximately 1 gram in quantity was removed from the patient during surgery, and was placed into a 25 ml sample jar, and immersed in sterile saline. The tumor tissue was kept at 4 degrees centigrade until processed for the screening of therapeutic compounds in accordance with the means and methods of the invention. All procedures were performed under sterile conditions in a bio-safety laminar flow hood.
FIG. 1 is a photographic image showing the mechanical division of the sample into portions to be tested. The sample has been prepared by dissecting away any non viable tissue and blood prior to mincing into 1-2 mm pieces using sterile disposable scalpels.
FIG. 2 is a photographic image showing tumor sample portions which have been placed into each well of a 48 well plate, and been submersed in a gel matrix mixture according to the invention. After insertion of the portions, the mixture was allowed to form into a gel at room temperature for approximately 30 minutes. Once the gel formed around the fully immersed tumor fragments, nutrient rich media was added as a liquid overlay that permeated the entire gel and tumor fragment.
Each different chemotherapy and or dose of chemotherapy was added to a set of 6 wells out of the 48-well plate. A total of 7 different chemotherapies were assessed in this plate. One set of six wells were not treated with drug and thus acted as ‘control conditions’ for tumor fragment growth and invasion. Each of the eight vertical lanes containing six separate wells was marked with a symbol for each chemotherapy/dose used and noted correspondingly on data collection sheets. […] The plates were then placed in a conventional 37 degree Celsius incubator at 5% CO2.
This image is thus representative of all wells at Day 0 with or without chemotherapeutics. Images were made with a 400× magnification phase contrast micrograph using ZEISS camera specs.
Noteworthy is the halo of cells and increased cell density as compared with the results shown at Day 3 of the test. The lines on the images have been drawn to show the distance measurements within which approximately 95% of the migrating cells have migrated away from the margins of the tissue sample.

SMILES	number of cells that have grown and invaded away from the solid tumor fragment	response to the drug (overall)	distance of cell migration away from the solid tumor fragment
N.N.[Cl][Pt][Cl] [Cisplatin]	identical in appearance and cell numbers to the control sample	failed chemotherapy	–
CC(=O)O[C@@]12CO[C@@H]1C[C@H](O)[C@@]1(C)C(=O)[C@H](O)C3=C(C)[C@@H](OC(=O)[C@H](O)[C@@H](NC(=O)OC(C)(C)C)c4ccccc4)C[C@@](O)([C@@H](OC(=O)c4ccccc4)[C@H]21)C3(C)C [Docetaxol, Docetaxel]	fewer number of invading cells than the control	moderate response	longer migratory distance than treatment with Taxol
CC(=O)O[C@H]1C(=O)[C@@]2(C)[C@H]([C@H](OC(=O)c3ccccc3)[C@]3(O)C[C@H](OC(=O)[C@H](O)[C@@H](NC(=O)c4ccccc4)c4ccccc4)C(C)=C1C3(C)C)[C@]1(OC(C)=O)CO[C@@H]1C[C@@H]2O [Taxol, Paclitaxel]	a drop in both the distance and the number of cells	–	a drop in both the distance and the number of cells
